Measured values taken from patent US20150216820A1, “QUINONE DERIVATIVES FOR USE IN THE MODULATION OF REDOX STATUS OF INDIVIDUALS” (Edison Pharmaceuticals, Inc., priority 2012, published 2015).
“Also recorded” adds a separate entry of the source.

Experiments:
[1] = system: children with genetically-confirmed Leigh syndrome; test: Phase 2 single arm subject-controlled trial in children with Leigh syndrome: clinical outcome scales (NPMDS, GMFM, PedsQL, MD-CRS); format: in vivo, human
[2] = system: intracellular (lymphocyte) glutathione; test: HPLC determination of lymphocyte glutathione forms (GSH, GS-Pro, GSSG) in treated Leigh syndrome patients; format: in vivo, human
Protocol: The determination of the different forms of GSH obtained from lymphocytes can be performed in a manner similar to the method previously reported by Pastore et al. (Clin. Chem. (Washington, D.C.) 44, 825-832 (1998)). Briefly, 30 μl of 4 M NaBH4, 20 μl of 2 mM EDTA/DTT, 10 μl of 1-octanol and 20 μl of 1.8 M HCl are placed in the derivatization vial containing 30 μl of sample. After the mixture is incubated for three min, 100 μl of 1.5 M N-ethylmorpholine buffer, pH 8.0, 400 μl of distilled water, and 20 μl of 25 mM bromobimane are added. After an additional three-min incubation, 40 μl of acetic acid are added and 20 μl (for free GSH) or 80 μl (for GSSG and GS-Pro) of this mixture are injected into the column. The thiol derivatives are quantified by HPLC (Agilent Technologies 1100 HPLC with a fluorescence detector-excitation at 390 nm and an emission at 478 nm). The analytes are separated for detection using a C18 column (Hypersil ODS; 150×4.6 mm, 3 micron) at 1.5 ml/min using an aqueous phase of aqueous 30 mM ammonium nitrate and 40 mM ammonium formate at pH 3.6 with an increasing acetonitrile gradient. HPLC determinations of the various forms of GSH are carried out on lymphocytes sonicated three times for two sec in 0.1 ml of 0.1 M potassium-phosphate buffer, pH 7.2 using a Model VC 130 Vibra Cell™ ultrasonic processor. For free GSH determinations, 100 μl of 12% sulfosalicylic acid are added to 50 μl of cells lysate, and analytes content on the acid-soluble fraction are determined. The protein pellet is dissolved in 150 μl of 0.1 N NaOH, and protein bound glutathione (GS-Pro) determined. For GSSG determination, cells are sonicated in the presence of 5 mM N-ethylmaleimide (NEM); 100 μl of 12% sulfosalicylic acid are added to 50 μl homogenates, and analytes content on the acid-soluble fraction are determined. Protein concentrations are quantified by BCA-protein assay.
(§1) Intracellular reduced glutathione (GSH) serves as the cell's principal endogenous antioxidant. Leigh syndrome and other mitochondrial diseases are associated with decreased GSH levels as the high level of oxidative stress and free oxygen radicals deplete cellular GSH reserves. In order to verify alpha-tocotrienol quinone mechanism of action and to correlate this action with clinical benefit, intracellular (lymphocyte) glutathione levels were measured in all patients. The ratio of recued-to-oxidized glutathione and reduced glutathione to total glutathione levels were calculated to assess the effect of alpha-tocotrienol quinone on repleting reduced intracellular glutathione. In addition, total serum thiol levels were measured prior to and following initiation of treatment. Plasma creatine levels—an exploratory biomarker for mitochondrial disease—was also obtained.
For lymphocytes and erythrocyte isolation from whole blood, venous blood samples were layered on the top of a discontinuous gradient consisting of 3 ml of Hystopaque®-1119 and 3 mL of Hystopaque®-1077. Gradients were centrifuged at 750 g for 40 min at 4° C. The lymphocyte layer was transferred to a 15 ml centrifuge tube, diluted to a volume of 10 ml with 0.9% NaCl and centrifuged at 750 g for 40 min. The supernatant was removed and, if necessary, the lysis of erythrocytes was performed by adding 2 ml H2O. After 90 s, 2 ml of 1.8% NaCl solution was added and cells washed four times with 0.9% NaCl. The pellet of lymphocytes was centrifuged at 750 g for 10 min and stored at −80° C. until HPLC analysis.
The determination of the different forms of GSH obtained from lymphocytes was performed, with little modification to a method previously reported (Pastore, A., et al. Clin. Chem. (Washington, D.C.) 44, 825-832 (1998)). Briefly, 30 μl of 4 M NaBH4, 20 μl of 2 mM EDTA/DTT, 10 μl of 1-octanol and 20 μl of 1.8 M HCl were placed in the derivatization vial containing 30 μl of sample. […]

[3] = system: total serum thiol levels; test: Total thiols in serum/plasma (DTNB, spectrophotometric); format: in vivo, human; details: three-month time point; p=0.008
Protocol: as §1
Total thiols were determined in plasma following the method reported by M.-L. Hu (Methods Enzymol. 233, 380-385 (1994)). 50 μl plasma was mixed with 1 ml of the Tris-EDTA buffer and the absorbance at 412 nm was measured. Then, 20 μl of 10 mM DTNB were added. After 15 min incubation at room temperature, the absorption at 412 nm (ε=13,600 cm^−1M^−1) was measured together with a DTNB blank.

[4] = system: plasma creatine; test: Plasma creatine levels (exploratory biomarker for mitochondrial disease); format: in vivo, human; details: p=0.15
Protocol: as §1

[5] = system: children with genetically-confirmed Leigh syndrome; test: Safety and tolerability in the Leigh syndrome trial; format: in vivo, human
Protocol: There were three serious adverse events due to intercurrent illness during the three month trial (two cases of bronchitis and one case of salmonellosis, all resolved). […] All recorded values were within the normal range for the clinical laboratories used for the analysis.
All subjects received 100 mg of alpha-tocotrienol quinone three times daily orally or via gastrostomy tube. Total treatment length was three months, with an extension phase for children who completed the initial treatment period. All adverse and serious adverse events were tracked in the trial database. In addition, all held doses due to intolerance of alpha-tocotrienol quinone or any other reason were also recorded.

[6] = system: Leigh syndrome (SURF1) primary cells; test: In vitro protection of patient primary cells against glutathione depletion-mediated apoptotic cell death; format: cell-based, human
Protocol: (§2) The initial clinical dose was selected based on laboratory and human patient pharmacokinetic modeling data. Specifically, a three-compartment model for oral administration was employed that included GI absorption delay, as well as one central and one peripheral compartment. A plasma trough drug concentration was targeted 10-20 fold above the ˜10 nM in vitro EC50 value of alpha-tocotrienol quinone that protected Leigh syndrome (SURF1) primary cells against glutathione depletion-mediated apoptotic cell death. Based on serum values of alpha-tocotrienol quinone obtained in two Leigh syndrome subjects after a single 100 mg dose of alpha-tocotrienol quinone was administered, a clinical dose of 100 mg three times daily was calculated and selected as the initial dose. […] This was consistent with the in vitro target dose and was confirmed in multiple pediatric subjects with inherited mitochondrial disease (Enns, G. M., et al., Mol. Genet. Metab. 105, 91-102 (2012); Blankenberg, F., et al., Ann. Neurol. 70, S148-S148 (2011)). This dose was also safely below the preclinical no observed adverse effect level (NOAEL).

[7] = Plasma trough drug concentration in Leigh syndrome subjects; format: in vivo; details: 100 mg three times daily, eight hours post dosing
Protocol: as §2

[8] = three months, 100 mg orally three times daily, p=0.01
[9] = LS patients after six-months treatment, n = 10

For CC(C)=CCC/C(C)=C/CC/C(C)=C/CC[C@@](C)(O)CCC1=C(C)C(=O)C(C)=C(C)C1=O [alpha-tocotrienol quinone], which clinical disease progression ([1]; all children, three months, regardless of age, genotype, severity) is on record?
The clinical disease progression was “arrest of disease progression and reversal”.

And the “NPMDS score, patient 1, earlier value” ([1]; patient 1, before continued treatment to six months)?
Its value is 23.5.

What about the “NPMDS score, patient 1, later value” ([1]; patient 1, treated for six months) of the same molecule?
Its value is 21.1.

And the “GMFM score, patient 2” value ([1]; patient 2, at six months, increased from 7.6)?
The value was 19.8.

And the “NPMDS score, patient 2, earlier value” ([1]; patient 2, before continued treatment to six months)?
Its value is 54.

What about the “change in GMFM score, patient 2” value ([1]; patient 2, following three months of treatment) of the same molecule?
Its value is “no change”.

What about the “NPMDS score, patient 2, later value” ([1]; patient 2, treated for six months) of the same molecule?
Its value is 46.

What about the “NPMDS score, patient 3, earlier value” ([1]; patient 3, before continued treatment to six months) of the same molecule?
Its value is 27.8.

What about the “NPMDS score, patient 3, later value” ([1]; patient 3, treated for six months) of the same molecule?
The value was 25.7.

And the “change in GMFM score, patient 7” value ([1]; patient 7, score 97.5 prior to treatment (maximum 100))?
The value was “did not change”.

What about the “clinical outcomes (NPMDS, neuromuscular function, health related quality of life, dystonia and spasticity), FIG. 1” value ([1]; prior to vs following three months of treatment) of the same molecule?
Its value is “significant improvement”.

What about the “average improvement in total NPMDS score from baseline” value ([1]; three months) of the same molecule?
The value was 25%.

And the “NPMDS sections 1-3 (organ system function), mean improvement” value ([1]; three months, 100 mg orally three times daily, p=0.005)?
Its value is 7.1.

What about the “GMFM, mean improvement” value [1, 8] of the same molecule?
Its value is 8.9.

What about the “NPMDS section 4 (quality of life), average improvement” value [1, 8] of the same molecule?
Its value is 4.6.

What about the “PedsQL Neuromuscular Module, mean improvement” value ([1]; three months, 100 mg orally three times daily, p=0.03) of the same molecule?
The value was 14.6.

What about the “Movement Disorder-Childhood Rating Scale (MD-CRS), improvement in each child” value ([1]; three months, secondary endpoint) of the same molecule?
The value was “one class”.

What about the “time to clinical response” value ([1]; universal and durable) of the same molecule?
Its value is “within eight weeks”.

And the “GS-Pro, lymphocytes, median” value [2, 9]?
The value was 0.57 nmol/mg proteins.

And the “GSH, lymphocytes, median” value [2, 9]?
Its value is 28.92 nmol/mg proteins.

And the “GSSG, lymphocytes, median” value [2, 9]?
The value was 1.47 nmol/mg proteins.

What about the “Tot GSH, lymphocytes, median” value [2, 9] of the same molecule?
Its value is 32.47 nmol/mg proteins.

And the “overall glutathione charge (GSSG/GSH and GSSG/total glutathione ratios), FIG. 2” value ([2]; all patients, over treatment time)?
Its value is “rapid normalization”.

And the “oxidized-to-reduced glutathione levels after treatment” value ([2]; decrease from baseline ratio mean 3.1+/-2.1, p=0.005)?
Its value is 0.25.

What about the “time to changes in reduced glutathione levels and oxidized-to-reduced glutathione ratios” value ([2]; in most of the patients) of the same molecule?
Its value is at most 4 weeks.

What about the “time to biochemical response (glutathione charge)” value ([2]; in several subjects, preceding clinical response) of the same molecule?
The value was “within two weeks”.

What about the “reduced glutathione in isolated lymphocytes after treatment” value ([2]; increase from 8.5 at baseline, p=0.002) of the same molecule?
The value was 25.1 nmol/mg cell protein.

What about the “oxidized glutathione after treatment” value ([2]; reduction, p=0.005) of the same molecule?
The value was 0.25 nmol/mg cell protein.

What about the “total serum thiol levels, mean change” value [3] of the same molecule?
Its value is 0.14.

And the “plasma creatine, overall average decrease” value [4]?
Its value is 20.2 points.

And the “clinical chemistry laboratory parameters incl. liver and kidney function tests and coagulation parameters” value ([5]; three month trial)?
Its value is “no abnormalities”.

What about the “other reported adverse conditions” value ([5]; three month trial) of the same molecule?
The value was “mild sleepiness and hypotonia”.

What about the “serious adverse events due to intercurrent illness” value ([5]; three month trial, two bronchitis, one salmonellosis, all resolved) of the same molecule?
The value was “three”.

What about the “drug related adverse events” value ([5]; three months, 100 mg three times daily) of the same molecule?
Its value is “No drug related adverse events; also recorded: not associated with any drug-induced adverse events”.

What about the EC50 [6] of the same molecule?
The EC50 was about 10 nM.

And the average trough concentration [7]?
The average trough concentration was about 200 nM.
